The values below come from publication PMC11357638 (Molecules, 2024).

Substitutions are numbered along the chain they refer to. Where two headings read alike, the source gives them in different places.

One test deals with TRPV3. The following applies: read-out: IC50, TRPV3 inhibition; cited from earlier work.
A further test concerns the target T1, hTRPV3 single channel (Homo sapiens, UniProt Q8NET8).
T1 construct: expressed in transfected cells; host or cells: HEK293T
T1 sequence (Q8NET8 1-790): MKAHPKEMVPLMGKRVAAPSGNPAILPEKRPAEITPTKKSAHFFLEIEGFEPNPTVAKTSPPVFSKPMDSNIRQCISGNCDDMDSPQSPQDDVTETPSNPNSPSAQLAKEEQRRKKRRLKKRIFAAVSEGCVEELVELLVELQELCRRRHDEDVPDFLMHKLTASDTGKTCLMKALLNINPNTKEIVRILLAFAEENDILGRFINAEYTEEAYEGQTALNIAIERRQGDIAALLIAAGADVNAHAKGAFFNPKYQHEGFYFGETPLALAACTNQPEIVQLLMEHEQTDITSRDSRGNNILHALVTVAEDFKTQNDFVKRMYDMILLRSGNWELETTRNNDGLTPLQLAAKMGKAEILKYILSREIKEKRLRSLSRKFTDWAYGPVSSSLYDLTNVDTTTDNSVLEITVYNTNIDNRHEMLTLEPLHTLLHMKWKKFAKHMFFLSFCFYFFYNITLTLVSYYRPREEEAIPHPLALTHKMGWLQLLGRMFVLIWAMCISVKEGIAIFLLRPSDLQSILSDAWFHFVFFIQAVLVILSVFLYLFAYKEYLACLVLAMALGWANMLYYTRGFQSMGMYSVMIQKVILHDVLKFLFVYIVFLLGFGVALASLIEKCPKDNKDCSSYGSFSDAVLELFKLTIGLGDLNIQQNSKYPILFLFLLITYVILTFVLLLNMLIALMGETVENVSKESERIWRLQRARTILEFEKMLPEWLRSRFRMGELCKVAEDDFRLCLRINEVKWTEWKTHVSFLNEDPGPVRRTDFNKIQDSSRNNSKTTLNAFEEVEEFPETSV
In words: Inside-out single-channel recording of hTRPV3. The following applies: −60 mV. Type of test: cell-based.

For test [1], the target named is T2, human TRPV3 (hTRPV3) channel (Homo sapiens, UniProt Q8NET8).
T2 construct: expressed in transfected cells; host or cells: HEK293T
T2 sequence (Q8NET8 1-790): T1 sequence (Q8NET8 1-790)
In words: Whole-cell patch-clamp of hTRPV3 currents in transfected HEK293T cells. Type of test: cell-based. (In general: Patch clamp records ionic current or voltage across a cell membrane.)

The next test has as its target T3, hTRPV3 T636A mutant (Homo sapiens, UniProt Q8NET8, T636A).
T3 construct: expressed in transfected cells; host or cells: HEK293T
T3 sequence (Q8NET8 1-790 T636A): T1 sequence (Q8NET8 1-790) with T636A
In words: Whole-cell patch-clamp of hTRPV3 T636A mutant in HEK293T cells. The format is cell-based.

A further test addresses T4, hTRPV3 I637A mutant (Homo sapiens, UniProt Q8NET8, I637A).
T4 construct: expressed in transfected cells; host or cells: HEK293T
T4 sequence (Q8NET8 1-790 I637A): T1 sequence (Q8NET8 1-790) with I637A
In words: Whole-cell patch-clamp of hTRPV3 I637A mutant in HEK293T cells. Type of test: cell-based. The following applies: I637A hTRPV3, 50 μM 2-APB, +80 mV, Hill fit; read-out: IC50, inhibition of I637A mutant outward currents.

The mark [2] stands for this setting: agonist carvacrol at 300 μM alone.

`O=C(/C=C/c1ccc(O)c(O)c1)O[C@@H]1C[C@](O)(C(=O)O)C[C@@H](OC(=O)/C=C/c2ccc(O)c(O)c2)[C@H]1O` [isochlorogenic acid A]: the IC50 (as a rule, the concentration at which inhibition is half-maximal) in the test with TRPV3 is 2.7 ± 1.3 µM.

Consider `Cc1ccc(C(C)C)cc1O` [carvacrol], for which, at hTRPV3 single channel (setting [2]), the “open frequency (Freq)” value is reported as 53.55 ± 7.27 Hz, the single-channel conductance worked out at 179.4 ± 12.8 pS and the “single-channel open probability (POPEN)” value worked out at 0.56 ± 0.05.

Take `O=C(/C=C/c1ccc(O)c(O)c1)O[C@@H]1[C@@H](OC(=O)/C=C/c2ccc(O)c(O)c2)C[C@@](O)(C(=O)O)C[C@@H]1O` [isochlorogenic acid B]: the IC50 in the test on TRPV3 was 0.9 ± 0.3 µM. `NCCOB(c1ccccc1)c1ccccc1` [2-APB, 2-aminoethoxydiphenylborate]: at hTRPV3 single channel (agonist 2-APB 50 μM alone), the “open frequency (Freq)” value is 75.05 ± 6.63 Hz, the single-channel conductance stood at 161.6 ± 3.8 pS and the “single-channel open probability (POPEN)” value was 0.72 ± 0.06. Take `O=C(/C=C/c1ccc(O)c(O)c1)OCCc1ccccc1` [CAPE, caffeic acid phenethyl ester]: the half-inhibitory concentration (IC50) worked out at 277 ± 41.9 µM in test [1] and 506 ± 57.3 µM against hTRPV3 T636A mutant. `C[C@@H]1O[C@@H](O[C@@H]2[C@@H](O)[C@H](OCCc3ccc(O)c(O)c3)O[C@H](CO)[C@H]2OC(=O)/C=C/c2ccc(O)c(O)c2)[C@H](O)[C@H](O)[C@H]1O` [verbascoside]: the IC50 with TRPV3 was 14.1 ± 3.3 µM. For the compound forsythiaside B, the half-maximal inhibitory concentration (IC50) in the test on TRPV3 was 6.7 ± 0.7 µM. With `COC(=O)/C=C/c1ccc(O)c(O)c1` [CAMC, caffeic acid methyl caffeate], the IC50 in test [1] (WT hTRPV3 in HEK293T, whole-cell, activated by 50 μM 2-APB, at +80 mV, Hill fit, mean ± SD, read-out: IC50, inhibition of hTRPV3 currents) came out at 410 ± 57.9 µM; at hTRPV3 T636A mutant (T636A hTRPV3, 50 μM 2-APB, +80 mV, Hill fit, read-out: IC50, inhibition of T636A mutant outward currents), 417 ± 45.1 µM; on hTRPV3 I637A mutant it was 522 ± 43.8 µM.
